68 compounds from patent US10940139B2, “Compounds that interact with the Ras superfamily for the treatment of cancers, inflammatory diseases, rasopathies, and fibrotic disease” (Shy Therapeutics LLC, priority 2017, dated 2021) can be followed below.

One assay deals with MAPK phosphorylation in PANC-1 pancreatic cancer cell line. Description: MAPK cell-based phosphorylation assay (cell-direct ELISA, EGF stimulation). Particulars: Homo sapiens. On the procedure:
Cell lines: Tumor-derived pancreatic cancer cell lines PANC-1 were purchased from ATCC and were maintained according to ATCC recommendation.
Method: Cells were plated at 7500 cells/well density in 96-wells plate, starved over night, and the small molecules to be tested were added to the cells in the final concentration of 30 μM with 0.3% DMSO for 6 hours incubation at 37° C. For IC50 value determination, serial dilutions of compounds were added to cells under the same conditions. Next, cells were stimulated with 1.5 ng/ml EGF for 15 min. followed by cell fixation with 4% Formaldehyde in PBS at RT for 20 min. Phosphorylation level of MAPK was determined by Cell-direct ELISA.
Cell-direct ELISA: For each well, cells were permeabilized with PBS-Triton 0.1%, quenched with H2O2 0.6% in PBS-Triton 0.1%, and probed with anti-phospho-MAPK antibodies (R&D Systems) followed by HRP-conjugated secondary antibody (Jackson Immunoresearch, West Grove, Pa.). Next, a solution 50 μM of the fluorescent substrate AmpliFlu Red (Sigma) was added and incubated at RT for 20 min. At the end of the incubation time, fluorescence was measured at 595 nm on a microplate reader (AF2200; Eppendorf, Inc., Hamburg, Germany).
Background: ELISA stands for enzyme-linked immunosorbent assay.
As to `O=C(c1csc2c(O)nc(-c3ccccn3)nc12)N1CCN(c2ccccc2)CC1` [drawing 1068], the IC50 (as a rule, the midpoint of a concentration-inhibition curve) fell in the range of 2 to 10 µM.

`O=C(CN1CCN(c2nc(-c3ccccn3)nc3sc(-c4ccccc4)cc23)CC1)N1CCCC1` [drawing 1091] displayed a 50% inhibitory concentration (IC50) of 2 to 10 µM.

On to `Oc1nc(-c2ccccn2)nc2c(-c3ccccc3Cl)csc12` [drawing 1075], for which the concentration for half-maximal inhibition (IC50) is less than 2 µM.

In turn, `Oc1nc(-c2ccccn2)nc2c(-c3cccc(C(F)(F)F)c3)csc12` [drawing 1212] registered a half-inhibitory concentration (IC50) of less than 2 µM.

`Oc1nc(-c2ccccn2)nc2c(-c3cccc4c3OCO4)csc12` [drawing 1193] registered a concentration for half-maximal inhibition (IC50) of less than 2 µM.

The same assay, now with this note: Homo sapiens, * = tested at 10 μM.
Regarding `Cn1ccnc1-c1nc(O)c2scc(-c3cccc(Cl)c3)c2n1` [drawing 1377], the inhibition (commonly the drop in the measured response relative to a control, in per cent) at 10 µM is 25 to 50%.

In the case of `COCCNc1nc(-c2ccccn2)nc2c1c(-c1ccccc1)nn2-c1ccccn1` [drawing 1298], the inhibition at 10 µM was in the range of 1 to 25%.

Consider `Oc1nc(-c2ccccn2)nc2cc(-c3ccncc3)sc12` [drawing 1321], for which at 10 µM the inhibition was 0%.

`COc1cc(C)c(-c2csc3c(O)nc(-c4ccccn4)nc23)cc1C` [drawing 1208] returned an inhibition at 10 µM of 1 to 25%.

In turn, `Cc1sc2c(O)nc(-c3nccn3C)nc2c1-c1cccc(OC(F)(F)F)c1` came in with an inhibition at 10 µM of 25 to 50%.

`CN(C)CCOc1cccc(-c2csc3c(O)nc(-c4ccccn4)nc23)c1` [drawing 1253] yielded an inhibition at 10 µM of 76 to 100%.

`CCC(C)c1csc2c(OC)nc(-c3ccccn3)nc12` (stereo not shown) [drawing 1245] registered an inhibition at 10 µM of 25 to 50%.

`O=c1[nH]c(-c2ccccn2)nc2c([C@@H]3O[C@H](CO)[C@@H](O)[C@H]3O)csc12` [drawing 1287] showed an inhibition at 10 µM of 1 to 25%.

In turn, `O=C(CCc1nn[nH]n1)Nc1nc(-c2ccccn2)nc2sccc12` [drawing 1227] showed an inhibition at 10 µM of 25 to 50%.

Turning to `Cc1ccc(OC2CCCC2)c(-c2csc3c(O)nc(-c4ccccn4)nc23)c1` [drawing 1189], the inhibition at 10 µM was in the range of 25 to 50%.

Consider `COC(=O)c1c(C)sc2c(N)nc(-c3ccccn3)nc12` [drawing 1260], for which the inhibition at 10 µM lay within 25 to 50%.

As to `Cc1c(Br)sc2c(O)nc(-c3ccccn3)nc12` [drawing 1248], the inhibition at 10 µM fell in the range of 1 to 25%.

`Cc1cnccc1-c1csc2c(O)nc(-c3ccccn3)nc12` [drawing 1225]: the inhibition at 10 µM lay in the range of 1 to 25%.

Take `O=C(COCc1ccnc(O)c1)Nc1nc(-c2ccccn2)nc2sccc12` [drawing 1199]: the inhibition at 10 µM was 1 to 25%.

As to `Cc1c(C(=O)O)sc2c(O)nc(-c3ccccn3)nc12` [drawing 1249], the inhibition at 10 µM is 25 to 50%.

The compound `COc1nc(-c2ccccn2)nc2c1c(-c1ccccc1)nn2-c1ccccn1` [drawing 1300] displayed an inhibition at 10 µM of 25 to 50%.

Regarding `Oc1nc(-c2ccccn2)nc2c(-c3ccc(OC4CCOCC4)cc3)csc12` [drawing 1206], the inhibition at 10 µM lay within 1 to 25%.

`Nc1nc(-c2ccccn2)nc2scc(C(=O)O)c12` [drawing 1242] showed an inhibition at 10 µM of 1 to 25%.

Take `Oc1nc(-c2ccccn2)nc2c1c(-c1ccccc1)nn2-c1ccccn1` [drawing 1299]: the inhibition at 10 µM is 0%.

In the case of `Oc1nc(-c2ccccn2)nc2c(CC3CCNC3)csc12` (stereo not shown) [drawing 1286], the inhibition at 10 µM was 1 to 25%.

Take `COCC(C)Nc1nc(-c2ccccn2)nc2sc(-c3ccncc3)c(-c3ccccc3)c12` (stereo not shown) [drawing 1301]: the inhibition at 10 µM amounted to 0%.

For the compound `Cn1ccnc1-c1nc(O)c2scc(-c3ccc(F)cc3F)c2n1` [drawing 1376], the inhibition at 10 µM was determined as 0%.

Regarding `Nc1nc(O)c2sc(-c3cccc(C(=O)NCc4ncc[nH]4)c3)cc2n1` [drawing 1305], the inhibition at 10 µM amounted to 0%.

The compound `Cn1ccnc1-c1nc(O)c2scc(-c3cccc(C(F)(F)F)c3)c2n1` [drawing 1358] registered an inhibition at 10 µM of 25 to 50%.

Turning to `O=C(NCCc1ccnc(O)n1)c1csc2nc(-c3ccccn3)nc(N3CCOCC3)c12` [drawing 1235], the inhibition at 10 µM lay within 1 to 25%.

With `Oc1nc(-c2ccccn2)nc2c(-c3cccc(C(F)(F)F)c3)csc12` [drawing 1212], the inhibition at 10 µM is 76 to 100%.

`Cc1c(-c2csc3c(O)nc(-c4ccccn4)nc23)cnn1C` [drawing 1266]: the inhibition at 10 µM was determined as 0%.

On to `Oc1nc(-c2ccccn2)nc2cc(-c3cccc(Br)c3)sc12` [drawing 1324], for which the inhibition at 10 µM was 25 to 50%.

In turn, `COc1cnc(-c2cn(C)cn2)nc1O` [drawing 1257] showed an inhibition at 10 µM of 51 to 75%.

In turn, `Oc1nc(-c2ccccn2)nc2c(-c3cccc4c3OCO4)csc12` [drawing 1193] gave an inhibition at 10 µM of 76 to 100%.

Compound `COc1ccc(-c2c(C)sc3c(O)nc(-c4nccn4C)nc23)cn1` [drawing 1361] gave an inhibition at 10 µM of 25 to 50%.

Consider `COc1ccc(COC[C@H]2O[C@@H](c3csc4c(=O)[nH]c(-c5ccccn5)nc34)[C@H](O)[C@@H]2O)cc1` [drawing 1293], for which the inhibition at 10 µM was 0%.

`Cn1ccnc1-c1nc(O)c2sc(-c3ccccc3)c(-c3ccccc3)c2n1` [drawing 1348]: the inhibition at 10 µM fell in the range of 51 to 75%.

Turning to `COC(=O)c1cc2nc(-c3ccccn3)nc(O)c2s1` [drawing 1243], the inhibition at 10 µM lay in the range of 25 to 50%.

Staying with this assay, now noted: Homo sapiens, at 30 μM.
`O=S1(=O)CCC(N2CCN(c3nc(-c4ccccn4)nc4scc(-c5ccccc5)c34)CC2)C1` (stereo not shown) [drawing 1093] displayed an inhibition at 30 µM of 1 to 25%.

As for `O=C(c1csc2c(O)nc(-c3ccccn3)nc12)N1CCN(c2ccc(F)cc2F)CC1` [drawing 1142], the inhibition at 30 µM lay in the range of 1 to 25%.

For `Oc1nc(-c2ccccn2)nc2[nH]cnc12` [drawing 1076], the inhibition at 30 µM is 1 to 25%.

For `O=C(Nc1nc(-c2ccccn2)cs1)c1ccc(F)cc1` [drawing 1035], the inhibition at 30 µM fell in the range of 1 to 25%.

For `O=C(Nc1nnc(-c2ccccn2)[nH]1)c1ccc2c(c1)CCO2` [drawing 995], the inhibition at 30 µM lay in the range of 1 to 25%.

In turn, `O=C(CC1C=CCC1)Nc1nnc(-c2ccccn2)[nH]1` (stereo not shown) [drawing 1005] showed an inhibition at 30 µM of 1 to 25%.

`CSc1nc(C2CC2)cc(C(=O)NCCc2ccc(S(=O)(=O)NC(=O)c3cc(C4CC4)nc(SC)c3C#N)cc2)c1C#N` [drawing 1055] came in with an inhibition at 30 µM of 76 to 100%.

Consider `CCN(CC)C(=O)CN1CCN(c2nc(-c3ccccn3)nc3scc(-c4ccccc4)c23)CC1` [drawing 1098], for which the inhibition at 30 µM lay within 25 to 50%.

The compound `CC(Oc1ccc(C(=O)Nc2nnc(-c3ccccn3)[nH]2)cn1)c1ccccc1` (stereo not shown) [drawing 1014] showed an inhibition at 30 µM of 25 to 50%.

`COc1ccc2c(c1)CCC2C(=O)Nc1ccnc(-c2ccccn2)n1` (stereo not shown) [drawing 1159]: the inhibition at 30 µM is 1 to 25%.

`O=C(c1csc2c(O)nc(-c3ccccn3)nc12)N1CCN(Cc2ccc(O)cc2)CC1` [drawing 1146] gave an inhibition at 30 µM of 25 to 50%.

As for `c1ccc(-c2csc3nc(-c4ccccn4)nc(N4CCN(CCN5CCCC5)CC4)c23)cc1` [drawing 1101], the inhibition at 30 µM was 76 to 100%.

For the compound `CON(C)c1nc(-c2ccccn2)nc2scc(-c3ccccc3)c12` [drawing 1095], the inhibition at 30 µM was 25 to 50%.

Turning to `COc1cc(OC)cc(N2CCN(C(=O)c3csc4c(O)nc(-c5ccccn5)nc34)CC2)c1` [drawing 1140], the inhibition at 30 µM lay in the range of 1 to 25%.

`O=C(CC(c1ccccc1)c1ccccc1)N1CCCc2c(O)nc(-c3ccccn3)nc21` [drawing 1061] had an inhibition at 30 µM of 1 to 25%.

`Cc1sc2nc(-c3ccccn3)nc(NCCCO)c2c1-c1ccccc1` [drawing 1043] returned an inhibition at 30 µM of 1 to 25%.

Consider `O=C(c1csc2c(O)nc(-c3ccccn3)nc12)N1CCN(c2cccc(Cl)c2)CC1` [drawing 1120], for which the inhibition at 30 µM is 25 to 50%.

For the compound `O=C(c1csc2c(O)nc(-c3ccccn3)nc12)N1CCN(c2ccccc2)CC1` [drawing 1068], the inhibition at 30 µM lay in the range of 76 to 100%.

In turn, `COCCNc1nc(-c2ccccn2)nc2scc(-c3ccccc3)c12` [drawing 1108] gave an inhibition at 30 µM of 76 to 100%.

Consider `CC(C)C1=C(O)C2(CC2c2ccc(-c3ccccc3)cc2)C(C)CC1` (stereo not shown) [drawing 1056], for which the inhibition at 30 µM lay in the range of 1 to 25%.

On to `O=C(CN1CCN(c2nc(-c3ccccn3)nc3sc(-c4ccccc4)cc23)CC1)N1CCCC1` [drawing 1091], for which the inhibition at 30 µM is 76 to 100%.

With `O=C(c1csc2c(O)nc(-c3ccccn3)nc12)N1CCN(c2ccncc2)CC1` [drawing 1069], the inhibition at 30 µM fell in the range of 25 to 50%.

`O=[N+]([O-])c1cc(C(F)(F)F)ccc1Sc1nc2c(c(C(F)(F)F)n1)CCCC2` showed an inhibition at 30 µM of 1 to 25%.

For `Oc1nc(-c2ccccn2)nc2c(-c3ccccc3Cl)csc12` [drawing 1075], the inhibition at 30 µM lay within 76 to 100%.

`O=C(c1csc2c(O)nc(-c3ccccn3)nc12)N1CCOC(c2ccc(F)cc2)C1` (stereo not shown) [drawing 1134] displayed an inhibition at 30 µM of 1 to 25%.

With `COc1ccc(CCC(=O)N2CCCc3c(O)nc(-c4ccccn4)nc32)cc1` [drawing 1058], the inhibition at 30 µM lay within 25 to 50%.

Regarding `CCOc1cc(S(=O)(=O)N(Cc2ccccc2)Cc2ccccc2)c(OCC)cc1C` [drawing 1049], the inhibition at 30 µM was in the range of 1 to 25%.

Turning to `O=C(Nc1nnc(-c2ccccn2)[nH]1)c1cccc(N2CCCS2(=O)=O)c1` [drawing 1021], the inhibition at 30 µM fell in the range of 1 to 25%.

The compound `O=S(=O)(CCc1ccccc1)N1CCCc2c(O)nc(-c3ccccn3)nc21` [drawing 1060] yielded an inhibition at 30 µM of 25 to 50%.

`CN(CC(=O)N1CCOCC1)c1nc(-c2ccccn2)nc2scc(-c3ccccc3)c12` [drawing 1094] returned an inhibition at 30 µM of 1 to 25%.

Compound `O=C(c1csc2c(O)nc(-c3ccccn3)nc12)N1CCNC(c2ccccc2F)C1` (stereo not shown) [drawing 1153] came in with an inhibition at 30 µM of 1 to 25%.

For `CC(C)CNC(=O)CN1CCN(c2nc(-c3ccccn3)nc3scc(-c4ccccc4)c23)CC1` [drawing 1099], the inhibition at 30 µM fell in the range of 1 to 25%.

The compound `O=C(Nc1nc(-c2ccccn2)cs1)c1ccncc1` [drawing 1034] came in with an inhibition at 30 µM of 25 to 50%.

As to `Cc1cnc(-c2ccccn2)nc1NC(=O)COCc1ccc(C#N)cc1` [drawing 1174], the inhibition at 30 µM was 1 to 25%.
